Experiments:
PBCEC = details: cited from earlier work
PBCEC monolayer = test: Lucifer yellow permeability through PBCEC monolayer; type: in vitro ADME, porcine
Procedure: Before starting each experiment, the TEER values and the electrical capacitance of all cell layers were measured via cellular impedance spectroscopy (cellZscope®, nanoAnalytics, Münster, Germany). […] TEER values relate to the constitution of the tight junctions limiting paracellular transfer of compounds. In addition to the TEER, electrical capacitances (CCl) were monitored for 48 h. Cellular phospholipid bilayers act like an electrical capacitor and also contribute to the cellular impedance. Changes of the CCl value give information about the integrity of the cell monolayer. In this experiment, a parallel set up was applied. For each treatment, one triplicate of filters was monitored via cellular impedance spectroscopy over the course of 48 h using a cellZscope® device–here, the basolateral compartment was prepared with 1650 μL serum free medium and the volume in the apical compartment was filled to 760 μL (ratio 1:2.17). Another triplicate for the same incubation conditions was kept in Transwell® filter cell culture multiple well plates (12 well format) over the course of 48 h. In the multiple well plates the ratio between the apical and the basolateral compartment was 1:3, therefore the starting volume in the apical compartment is 500 μL and 1500 μL in the basolateral compartment. Here, samples for quantitation of transfer of enniatins across the barrier were drawn after 1, 2.5, 6.5, 18, 24, 28, 42 and 48 hours in this given ratio i.e. 30 μL apical and 90 μL basolateral. After 48 h, the final TEER values of the filters from the multiple well plate were measured to ensure the stability of the cell layer throughout the experiment. To double check the integrity of the barrier, lucifer yellow (LY, 50 μM), as a paracellular transfer marker, was applied. The amount of LY found in the basolateral compartment after 1 h was measured at λex = 430 nm and λ em = 540 nm.
After completion of each transport experiment, both active and passive, lucifer yellow (LY) was applied in 50 μM concentration in the apical compartments. Samples were drawn after 1 h and the amount of LY in the basolateral compartment was quantitated via external calibration. The permeability coefficients for LY through cells treated with the solvent control (ACN 0.1% and 0.02%) and through cells treated with the test compounds for the past 48 h were calculated (Table 2). The permeability coefficients range in the same order of magnitude for test substance treated cells and cells incubated with solvent, which is considerably lower than the permeability coefficients derived for ENN B and ENN B1 and indicates an intact and tight monolayer with low paracellular transfer of compounds.

| Compound | Papp (PBCEC) | Permeability coefficient of LY (PBCEC monolayer; after 48 h treatment with 200 nM ENN B1 in both compartments (active)) | Permeability coefficient of LY (PBCEC monolayer; after 48 h treatment with 200 nM ENN B in both compartments (active)) | Permeability coefficient of LY (PBCEC monolayer; after 48 h treatment with 1 μM ENN B1 apically (passive)) | Permeability coefficient of LY (PBCEC monolayer; after 48 h treatment with 1 μM ENN B apically (passive)) | Permeability coefficient of LY (PBCEC monolayer; solvent control ACN 0.02%) | Permeability coefficient of LY (PBCEC monolayer; solvent control ACN 0.1%) |
| --- | --- | --- | --- | --- | --- | --- | --- |
| Cn1c(=O)c2c(ncn2C)n(C)c1=O [caffeine] | 1.55e-05 cm/s |  |  |  |  |  |  |
| lucifer yellow [LY] |  | 0.9 10^−6 cm/s | 0.7 10^−6 cm/s | 2.2 10^−6 cm/s | 1.9 10^−6 cm/s | 0.2 10^−6 cm/s | 3.2 10^−6 cm/s |

Reference: paper PMC5955586, “Transport of enniatin B and enniatin B1 across the blood-brain barrier and hints for neurotoxic effects in cerebral cells” (PLoS ONE, 2018)
